# Assay results from US20260259222A1, “METHOD OF DIAGNOSING WOUNDS” (TRAUMA CARE CONSULT TRAUMATOLOGISCHE FORSCHUNG …, priority 2022, published 2026).
# Legend:
# [1] = test system: p-rpS6 in human dermal fibroblasts (HDFs); test: in vitro scratch assay, p-rpS6-positive cells (immunofluorescence); type: cell-based; conditions: HDFs in basal medium; pre-treatment 10 to 30 min prior to scratch with 20 nM rapamycin or 10 μM U0126; fixed 30 min after scratch; vs DMSO
# Method: (§1) To model a skin wound in vitro, cell cultures were subjected to a damage assay to monitor cellular response mechanisms. Commercially available human dermal fibroblasts (HDFs) were cultured in HDF medium (DMEM/F12 (Sigma Aldrich), 10% fetal bovine serum (Sigma Aldrich) and 4 mM L-Glutamine (Gibco)), subcultivated at 90% confluency and used for experiments below passage 15. Immortalised human keratinocytes (HaCaT) were maintained in HACAT medium (DMEM high glucose (Sigma Aldrich), 10% fetal bovine serum (Sigma Aldrich) and 2 mM L-Glutamine (Gibco) and subcultivated at 60% confluency. All cell culture experiments were performed in a humidified incubator at 37° C. and 5% CO2. […]
# (§2) For immunofluorescence staining, the coverslips containing damaged and control cells were permeabilized using 0.5% Triton X100 for 5 min, washed three times with PBS for 5 min each, and blocked using PBS with 5% goat serum (VECS-1000, Vector Laboratories) for 1 h. […] For quantification of rpS6 and Erk phosphorylation, ten images per slide were taken along the scratch using an inverted microscope Nikon (Nikon Corporation, Tokyo, Japan) with set exposure times. These images were processed and quantified for total cell count and activated cell count (p-rpS6 or p-ERK positive cells) using set thresholds and particle analysis in Fiji. […]
# [2] = test system: p-Erk in human dermal fibroblasts (HDFs); test: in vitro scratch assay, p-Erk-positive cells (immunofluorescence); type: cell-based; conditions: HDFs in basal medium; pre-treatment 10 to 30 min prior to scratch with 20 nM rapamycin or 10 μM U0126; fixed 30 min after scratch; vs DMSO
# Method: as §1, §2
smiles,measurement,setting,value
N#CC(=C(/N)Sc1ccccc1N)/C(C#N)=C(\N)Sc1ccccc1N [U0126],effect on p-rpS6 induction (number of cells positive for p-rpS6) in the scratch assay,[1],no significant effect on rpS6 phosphorylation
same,effect on Erk phosphorylation (number of cells positive for p-Erk) in the scratch assay,[2],almost completely abrogating p-Erk-positive cells
